Source: the NIST ThermoML archive (doi:10.1021/je900237e)
± gives the expanded uncertainty stated by the source.

Settings: 101.33 kPa, Liquid; for speed of sound: Pulse-echo method; for mass density: Pycnometric method

Compound	speed of sound (298.15 K) [m/s]	mass density (298.15 K) [kg/m3]	speed of sound (308.15 K) [m/s]
Cc1ccccc1C [1,2-dimethylbenzene]	1344 ± 2	875.9 ± 0.46	
Cc1ccc(C)cc1 [1,4-dimethylbenzene]	1310 ± 2	858.63 ± 0.45	
Cc1ccccc1N [2-methylaniline]		994.28 ± 0.57	1603 ± 2.3
c1ccccc1 [benzene]	1298 ± 5	873.64 ± 5.5	
Cc1ccccc1 [toluene]	1305 ± 5	862.17 ± 5.4	
